The values below come from US10513522B2, “Azetidinyl phenyl, pyridyl or pyrazinyl carboxamide derivatives as JAK inhibitors” (Incyte Corporation, priority 2011, dated 2019).

This test relates to human JAK1 (a.a. 837-1142). Briefly: In vitro JAK kinase assay (HTRF, phosphorylation of biotinylated peptide), JAK1. It is filed as biochemical. Conditions: ratio of IC50 at 1 mM ATP. In general terms: TR-FRET usually uses a lanthanide donor and a delayed reading to cut background.
Procedure: The catalytic activity of JAK1, JAK2 or JAK3 was assayed by measuring the phosphorylation of a biotinylated peptide. The phosphorylated peptide was detected by homogenous time resolved fluorescence (HTRF). […] Reactions were carried out at room temperature for 1 hour and then stopped with 20 μL 45 mM EDTA, 300 nM SA-APC, 6 nM Eu-Py20 in assay buffer (Perkin Elmer, Boston, Mass.). Binding to the Europium labeled antibody took place for 40 minutes and HTRF signal was measured on a Fusion plate reader (Perkin Elmer, Boston, Mass.).
On to `CC(C)NC(=O)c1ccc(N2CC(CC#N)(n3cc(-c4ncnc5[nH]ccc45)cn3)C2)cn1` [Example 9, 5-{3-(Cyanomethyl)-3-[4-(7H-pyrrolo[2,3-d]pyrimidin-4-yl)-1H-pyrazol-1-yl]azetidin-1-yl}-N-isopropylpyridine-2-carboxamide], for which the JAK2/JAK1 result is on record as “A (A means greater than or equal to 10)”. Then `CC[C@@H](C)NC(=O)c1ccc(N2CC(CC#N)(n3cc(-c4ncnc5[nH]ccc45)cn3)C2)cc1.O=C(O)C(F)(F)F.O=C(O)C(F)(F)F` [Example 25, 4-{3-(Cyanomethyl)-3-[4-(7H-pyrrolo[2,3-d]pyrimidin-4-yl)-1H-pyrazol-1-yl]azetidin-1-yl}-N-[(1R)-1-methylpropyl]benzamide bis(trifluoroacetate)], with “A (A means greater than or equal to 10)”; and `N#CCC1(n2cc(-c3ncnc4[nH]ccc34)cn2)CN(c2cc(F)c(C(=O)NCC(F)F)cc2F)C1` [Example 37, 4-{3-(Cyanomethyl)-3-[4-(7H-pyrrolo[2,3-d]pyrimidin-4-yl)-1H-pyrazol-1-yl]azetidin-1-yl}-N-(2,2-difluoroethyl)-2,5-difluorobenzamide], with “A (A means greater than or equal to 10)”. `C[C@@H](NC(=O)c1cnc(N2CC(CC#N)(n3cc(-c4ncnc5[nH]ccc45)cn3)C2)cn1)C(F)(F)F` [Example 30, 5-{3-(Cyanomethyl)-3-[4-(7H-pyrrolo[2,3-d]pyrimidin-4-yl)-1H-pyrazol-1-yl]azetidin-1-yl}-N-[(1R)-2,2,2-trifluoro-1-methylethyl]pyrazine-2-carboxamide]: the JAK2/JAK1 entry is “A (A means greater than or equal to 10)”.

`C[C@H](NC(=O)c1ccc(N2CC(CC#N)(n3cc(-c4ncnc5[nH]ccc45)cn3)C2)cc1F)C1CCCCC1` [Example 15, 4-{3-(Cyanomethyl)-3-[4-(7H-pyrrolo[2,3-d]pyrimidin-4-yl)-1H-pyrazol-1-yl]azetidin-1-yl}-N-[(1S)-1-cyclohexylethyl]-2-fluorobenzamide]: the JAK2/JAK1 result was “A (A means greater than or equal to 10)”. `CC(C)NC(=O)c1cc(F)c(N2CC(CC#N)(n3cc(-c4ncnc5[nH]ccc45)cn3)C2)cc1F` [Example 6, 4-{3-(Cyanomethyl)-3-[4-(7H-pyrrolo[2,3-d]pyrimidin-4-yl)-1H-pyrazol-1-yl]azetidin-1-yl}-2,5-difluoro-N-isopropylbenzamide]: the JAK2/JAK1 result is reported as “A (A means greater than or equal to 10)”. `C[C@@H](NC(=O)c1ccc(N2CC(CC#N)(n3cc(-c4ncnc5[nH]ccc45)cn3)C2)cc1F)C1CC1` [Example 39, 4-{3-(Cyanomethyl)-3-[4-(7H-pyrrolo[2,3-d]pyrimidin-4-yl)-1H-pyrazol-1-yl]azetidin-1-yl}-N-[(1R)-1-cyclopropylethyl]-2-fluorobenzamide]: the JAK2/JAK1 entry was “A (A means greater than or equal to 10)”. Under `CC(C)NC(=O)c1ccc(N2CC(CC#N)(n3cc(-c4ccnc5[nH]ccc45)cn3)C2)cc1` [Example 1, 4-{3-(Cyanomethyl)-3-[4-(1H-pyrrolo[2,3-b]pyridin-4-yl)-1H-pyrazol-1-yl]azetidin-1-yl}-N-isopropylbenzamide] stands “A (A means greater than or equal to 10)”.

On to `N#CCC1(n2cc(-c3ccnc4[nH]ccc34)cn2)CN(c2cnc(C(=O)N[C@@H](C3CC3)C(F)(F)F)cn2)C1` [Example 42, 5-{3-(Cyanomethyl)-3-[4-(1H-pyrrolo[2,3-b]pyridin-4-yl)-1H-pyrazol-1-yl]azetidin-1-yl}-N-[(1S)-1-cyclopropyl-2,2,2-trifluoroethyl]pyrazine-2-carboxamide], for which the JAK2/JAK1 result is “A (A means greater than or equal to 10)”. On to `N#CCC1(n2cc(-c3ncnc4[nH]ccc34)cn2)CN(c2ccc(C(=O)NC3CC(F)(F)C3)nc2)C1` [Example 12, 5-{3-(Cyanomethyl)-3-[4-(7H-pyrrolo[2,3-d]pyrimidin-4-yl)-1H-pyrazol-1-yl]azetidin-1-yl}-N-(3,3-difluorocyclobutyl)pyridine-2-carboxamide], for which the JAK2/JAK1 result is on record as “A (A means greater than or equal to 10)”. For `C[C@H](NC(=O)c1ccc(N2CC(CC#N)(n3cc(-c4ccnc5[nH]ccc45)cn3)C2)cn1)C1CC1` [Example 2, 5-{3-(Cyanomethyl)-3-[4-(1H-pyrrolo[2,3-b]pyridin-4-yl)-1H-pyrazol-1-yl]azetidin-1-yl}-N-[(1S)-1-cyclopropylethyl]pyridine-2-carboxamide], the JAK2/JAK1 entry is “A (A means greater than or equal to 10)”. For `N#CCC1(n2cc(-c3ncnc4[nH]ccc34)cn2)CN(c2cnc(C(=O)N[C@@H](C3CC3)C(F)(F)F)cn2)C1` [Example 32, 5-{3-(Cyanomethyl)-3-[4-(7H-pyrrolo[2,3-d]pyrimidin-4-yl)-1H-pyrazol-1-yl]azetidin-1-yl}-N-[(1S)-1-cyclopropyl-2,2,2-trifluoroethyl]pyrazine-2-carboxamide], the JAK2/JAK1 entry was “A (A means greater than or equal to 10)”.

For the molecule `N#CCC1(n2cc(-c3ccnc4[nH]ccc34)cn2)CN(c2ccc(C(=O)NC3(C(F)(F)F)CC3)nc2)C1` [Example 40, 5-{3-(Cyanomethyl)-3-[4-(1H-pyrrolo[2,3-b]pyridin-4-yl)-1H-pyrazol-1-yl]azetidin-1-yl}-N-[1-(trifluoromethyl)cyclopropyl]pyridine-2-carboxamide], the JAK2/JAK1 entry is “A (A means greater than or equal to 10)”.

Turning to `N#CCC1(n2cc(-c3ncnc4[nH]ccc34)cn2)CN(c2ccc(C(=O)NC3(C(F)(F)F)CC3)nc2)C1` [Example 17, 5-{3-(Cyanomethyl)-3-[4-(7H-pyrrolo[2,3-d]pyrimidin-4-yl)-1H-pyrazol-1-yl]azetidin-1-yl}-N-[1-(trifluoromethyl)cyclopropyl]pyridine-2-carboxamide], the JAK2/JAK1 entry is “A (A means greater than or equal to 10)”. In the case of `CC(C)NC(=O)c1cc(Cl)c(N2CC(CC#N)(n3cc(-c4ncnc5[nH]ccc45)cn3)C2)cc1F` [Example 8, 5-Chloro-4-{3-(cyanomethyl)-3-[4-(7H-pyrrolo[2,3-d]pyrimidin-4-yl)-1H-pyrazol-1-yl]azetidin-1-yl}-2-fluoro-N-isopropylbenzamide], the JAK2/JAK1 result is listed as “A (A means greater than or equal to 10)”.

For the molecule `C[C@H](NC(=O)c1cc(F)c(N2CC(CC#N)(n3cc(-c4ncnc5[nH]ccc45)cn3)C2)cc1F)C(F)(F)F` [Example 28, 4-{3-(Cyanomethyl)-3-[4-(7H-pyrrolo[2,3-d]pyrimidin-4-yl)-1H-pyrazol-1-yl]azetidin-1-yl}-2,5-difluoro-N-[(1S)-2,2,2-trifluoro-1-methylethyl]benzamide], the JAK2/JAK1 entry is listed as “A (A means greater than or equal to 10)”. For `C[C@@H](NC(=O)c1cc(F)c(N2CC(CC#N)(n3cc(-c4ncnc5[nH]ccc45)cn3)C2)cc1F)C1CC1` [Example 21, 4-{3-(Cyanomethyl)-3-[4-(7H-pyrrolo[2,3-d]pyrimidin-4-yl)-1H-pyrazol-1-yl]azetidin-1-yl}-N-[(1R)-1-cyclopropylethyl]-2,5-difluorobenzamide], the JAK2/JAK1 entry is on record as “A (A means greater than or equal to 10)”. In the case of `N#CCC1(n2cc(-c3ccnc4[nH]ccc34)cn2)CN(c2cnc(C(=O)NCC(F)(F)F)cn2)C1` [Example 36, 5-{3-(Cyanomethyl)-3-[4-(1H-pyrrolo[2,3-b]pyridin-4-yl)-1H-pyrazol-1-yl]azetidin-1-yl}-N-(2,2,2-trifluoroethyl)pyrazine-2-carboxamide], the JAK2/JAK1 entry was “A (A means greater than or equal to 10)”.

Turning to `C[C@H](NC(=O)c1ccc(N2CC(CC#N)(n3cc(-c4ncnc5[nH]ccc45)cn3)C2)c(F)c1)C(F)(F)F` [Example 10, 4-{3-(Cyanomethyl)-3-[4-(7H-pyrrolo[2,3-d]pyrimidin-4-yl)-1H-pyrazol-1-yl]azetidin-1-yl}-3-fluoro-N-[(1S)-2,2,2-trifluoro-1-methylethyl]benzamide], the JAK2/JAK1 result is “A (A means greater than or equal to 10)”. With `C[C@@H](NC(=O)c1ccc(N2CC(CC#N)(n3cc(-c4ncnc5[nH]ccc45)cn3)C2)c(F)c1)C(F)(F)F` [Example 16, 4-{3-(Cyanomethyl)-3-[4-(7H-pyrrolo[2,3-d]pyrimidin-4-yl)-1H-pyrazol-1-yl]azetidin-1-yl}-3-fluoro-N-[(1R)-2,2,2-trifluoro-1-methylethyl]benzamide], the JAK2/JAK1 entry is reported as “A (A means greater than or equal to 10)”. Under `CC(C)NC(=O)c1ccc(N2CC(CC#N)(n3cc(-c4ccnc5[nH]ccc45)cn3)C2)c(F)c1` [Example 27, 4-{3-(Cyanomethyl)-3-[4-(1H-pyrrolo[2,3-b]pyridin-4-yl)-1H-pyrazol-1-yl]azetidin-1-yl}-3-fluoro-N-isopropylbenzamide] stands “A (A means greater than or equal to 10)”. `N#CCC1(n2cc(-c3ncnc4[nH]ccc34)cn2)CN(c2ccc(C(=O)N[C@@H](C3CC3)C(F)(F)F)cc2)C1` [Example 38, 4-{3-(Cyanomethyl)-3-[4-(7H-pyrrolo[2,3-d]pyrimidin-4-yl)-1H-pyrazol-1-yl]azetidin-1-yl}-N-[(1S)-1-cyclopropyl-2,2,2-trifluoroethyl]benzamide]: the JAK2/JAK1 entry is recorded as “A (A means greater than or equal to 10)”.

Take `C[C@H](NC(=O)c1cnc(N2CC(CC#N)(n3cc(-c4ccnc5[nH]ccc45)cn3)C2)cn1)C1CC1` [Example 41, 5-{3-(Cyanomethyl)-3-[4-(1H-pyrrolo[2,3-b]pyridin-4-yl)-1H-pyrazol-1-yl]azetidin-1-yl}-N-[(1S)-1-cyclopropylethyl]pyrazine-2-carboxamide]: the JAK2/JAK1 result was “A (A means greater than or equal to 10)”. Under `CC(C)NC(=O)c1ccc(N2CC(CC#N)(n3cc(-c4ncnc5[nH]ccc45)cn3)C2)cc1` [Example 13, 4-{3-(Cyanomethyl)-3-[4-(7H-pyrrolo[2,3-d]pyrimidin-4-yl)-1H-pyrazol-1-yl]azetidin-1-yl}-N-isopropylbenzamide] stands “A (A means greater than or equal to 10)”; under `C[C@H](NC(=O)c1cnc(N2CC(CC#N)(n3cc(-c4ncnc5[nH]ccc45)cn3)C2)cn1)C(F)(F)F` [Example 31, 5-{3-(Cyanomethyl)-3-[4-(7H-pyrrolo[2,3-d]pyrimidin-4-yl)-1H-pyrazol-1-yl]azetidin-1-yl}-N-[(1S)-2,2,2-trifluoro-1-methylethyl]pyrazine-2-carboxamide], “A (A means greater than or equal to 10)”.
